Literature values in patent publication US20130344444A1, “PROCESS FOR MAKING LITHOGRAPHIC PRINTING PLATE” (FUJIFILM Corporation, priority 2011, published 2013).

SMILES | solubility in water | solubility in water (in words)
CCCCC(CC)COCCOCCO (stereo not drawn) [Diethylene glycol mono-2-ethylhexyl ether] | 0.3 g/100 mL of water | –
CC(C)(C)OCCO [Ethylene glycol mono-t-butyl ether] | – | mutually mixing
OCCOc1ccccc1 [Ethyleneglycol monophenyl ether, reference compound] | 2.7 g/100 mL of water | –
CCCCCCOCCO [Ethylene glycol mono-n-hexyl ether] | 1.0 g/100 mL of water | –
OCc1ccccc1 [Benzyl alcohol, reference compound] | 4.0 g/100 mL of water | –
CCCCOCC(C)O (stereo not drawn) [Propylene glycol mono-n-butyl ether] | 4.4 g/100 mL of water | –
